Measurements published in ChEMBL document CHEMBL4387773, “Identification of potent, selective and orally bioavailable phenyl ((R)-3-phenylpyrrolidin-3-yl)sulfone analogues as RORγt inverse agonists” (Bioorg Med Chem Lett, 2019).

Molecular target: T1, Nuclear receptor subfamily 1 group I member 2 (Homo sapiens, UniProt O75469)
T1 sequence (O75469 whole entry): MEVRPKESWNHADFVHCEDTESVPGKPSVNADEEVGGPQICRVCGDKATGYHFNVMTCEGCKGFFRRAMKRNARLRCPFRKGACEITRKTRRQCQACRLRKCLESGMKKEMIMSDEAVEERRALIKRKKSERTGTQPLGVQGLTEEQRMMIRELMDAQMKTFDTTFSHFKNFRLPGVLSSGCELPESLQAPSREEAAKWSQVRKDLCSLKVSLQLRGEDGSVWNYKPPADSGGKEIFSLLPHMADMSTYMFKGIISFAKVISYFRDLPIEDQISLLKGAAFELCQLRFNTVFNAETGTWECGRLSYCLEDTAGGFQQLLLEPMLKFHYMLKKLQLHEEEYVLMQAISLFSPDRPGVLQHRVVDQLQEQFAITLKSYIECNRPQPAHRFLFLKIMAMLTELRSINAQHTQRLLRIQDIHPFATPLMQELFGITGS
Assay: Transactivation of PXR (unknown origin) expressed in human HepG2 cells assessed as maximum receptor activation response relative to control
Format: cell-based
Settings: hepg2

| %max [%] | Structure (SMILES) |
| --- | --- |
| 37 | O=C(C1CCS(=O)(=O)C1)N1CC[C@](c2ccc(C(F)(C(F)(F)F)C(F)(F)F)cc2)(S(=O)(=O)c2ccc(F)cc2)C1 (stereo in doubt; 33) |
| 29 | CS(=O)(=O)C1CCC(C(=O)N2CC[C@](c3ccc(C(F)(C(F)(F)F)C(F)(F)F)cc3)(S(=O)(=O)c3ccc(F)cc3)C2)CC1 (stereo in doubt; 28) |
| 6 | CS(=O)(=O)C1CCC(C(=O)N2CC[C@](c3ccc(C(F)(C(F)(F)F)C(F)(F)F)cc3)(S(=O)(=O)c3ccc(F)cc3)C2)CC1 (stereo in doubt; 29) |
| 19 | O=C(O)C1CCC(O)(C(=O)N2CC[C@](c3ccc(C(F)(C(F)(F)F)C(F)(F)F)cc3)(S(=O)(=O)c3ccc(F)cc3)C2)CC1 (stereo in doubt; 13) |

Molecular target: T2, Nuclear receptor ROR-beta (Homo sapiens, UniProt Q92753)
T2 sequence (Q92753 whole entry): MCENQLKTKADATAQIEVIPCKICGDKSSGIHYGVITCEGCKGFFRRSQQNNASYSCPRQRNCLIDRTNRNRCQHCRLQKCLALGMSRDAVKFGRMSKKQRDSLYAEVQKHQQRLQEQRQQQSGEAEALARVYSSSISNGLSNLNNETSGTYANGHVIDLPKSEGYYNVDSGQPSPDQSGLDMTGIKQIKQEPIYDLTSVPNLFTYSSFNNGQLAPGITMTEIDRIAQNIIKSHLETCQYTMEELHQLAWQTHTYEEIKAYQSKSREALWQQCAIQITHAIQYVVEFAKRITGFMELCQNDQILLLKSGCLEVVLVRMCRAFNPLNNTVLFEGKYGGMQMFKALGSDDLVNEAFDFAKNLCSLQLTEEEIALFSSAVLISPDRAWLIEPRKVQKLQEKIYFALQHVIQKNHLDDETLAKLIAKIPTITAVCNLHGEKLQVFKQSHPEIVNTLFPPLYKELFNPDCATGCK
Assay: Inverse agonist activity at human Gal4-fused RORbeta LBD (200 to 559 residues) expressed in human Jurkat cells measured after 18 hrs by steady-glo luciferase reporter gene assay
Format: cell-based
Settings: not given

| EC50 [µM] | Structure (SMILES) |
| --- | --- |
| > 40 | CS(=O)(=O)C1CCC(C(=O)N2CC[C@](c3ccc(C(F)(C(F)(F)F)C(F)(F)F)cc3)(S(=O)(=O)c3ccc(F)cc3)C2)CC1 (stereo in doubt; 28) |

Same assay, conditions: jurkat

| EC50 [µM] | Structure (SMILES) |
| --- | --- |
| > 40 | O=C(C1CCS(=O)(=O)C1)N1CC[C@](c2ccc(C(F)(C(F)(F)F)C(F)(F)F)cc2)(S(=O)(=O)c2ccc(F)cc2)C1 (stereo in doubt; 33) |
| > 40 | CS(=O)(=O)C1CCC(C(=O)N2CC[C@](c3ccc(C(F)(C(F)(F)F)C(F)(F)F)cc3)(S(=O)(=O)c3ccc(F)cc3)C2)CC1 (stereo in doubt; 29) |
| > 40 | O=C(O)C1CCC(O)(C(=O)N2CC[C@](c3ccc(C(F)(C(F)(F)F)C(F)(F)F)cc3)(S(=O)(=O)c3ccc(F)cc3)C2)CC1 (stereo in doubt; 13) |

Tested on: not listed separately
Assay: Stability in human liver microsomes assessed as parent compound remaining after 10 mins
Format: ADME, Microsome
Settings: liver microsomes, read-out: Stability

| remaining at 10 min [%] | Structure (SMILES) |
| --- | --- |
| 88 | CS(=O)(=O)C1CCC(C(=O)N2CC[C@](c3ccc(C(F)(C(F)(F)F)C(F)(F)F)cc3)(S(=O)(=O)c3ccc(F)cc3)C2)CC1 (stereo in doubt; 28) |

Same assay, conditions: microsomes, 10 min

| Stability [%] | Structure (SMILES) |
| --- | --- |
| 100 | CS(=O)(=O)C1CCC(C(=O)N2CC[C@](c3ccc(C(F)(C(F)(F)F)C(F)(F)F)cc3)(S(=O)(=O)c3ccc(F)cc3)C2)CC1 (stereo in doubt; 29) |
| 95 | O=C(O)C1CCC(O)(C(=O)N2CC[C@](c3ccc(C(F)(C(F)(F)F)C(F)(F)F)cc3)(S(=O)(=O)c3ccc(F)cc3)C2)CC1 (stereo in doubt; 13) |

Molecular target: T3, Oxysterols receptor LXR-alpha (Homo sapiens, UniProt Q13133)
T3 sequence (Q13133 whole entry): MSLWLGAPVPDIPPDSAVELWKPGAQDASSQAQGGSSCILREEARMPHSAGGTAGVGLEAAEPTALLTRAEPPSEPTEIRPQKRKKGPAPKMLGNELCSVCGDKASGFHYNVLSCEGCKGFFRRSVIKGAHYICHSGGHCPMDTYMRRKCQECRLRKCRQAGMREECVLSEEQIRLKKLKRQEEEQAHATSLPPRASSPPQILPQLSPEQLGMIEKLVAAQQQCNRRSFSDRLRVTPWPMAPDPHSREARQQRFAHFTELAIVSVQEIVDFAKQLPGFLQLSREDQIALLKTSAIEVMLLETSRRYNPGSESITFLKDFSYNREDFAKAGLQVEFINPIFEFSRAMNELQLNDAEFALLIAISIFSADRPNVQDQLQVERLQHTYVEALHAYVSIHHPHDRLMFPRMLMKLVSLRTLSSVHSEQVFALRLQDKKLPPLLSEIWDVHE
Assay: Transactivation of human GAL4-fused LXRalpha expressed in African green monkey CV1 cells
Format: cell-based
Settings: not given

| EC50 [µM] | Structure (SMILES) |
| --- | --- |
| > 7.5 | O=C(C1CCS(=O)(=O)C1)N1CC[C@](c2ccc(C(F)(C(F)(F)F)C(F)(F)F)cc2)(S(=O)(=O)c2ccc(F)cc2)C1 (stereo in doubt; 33) |
| > 7.5 | CS(=O)(=O)C1CCC(C(=O)N2CC[C@](c3ccc(C(F)(C(F)(F)F)C(F)(F)F)cc3)(S(=O)(=O)c3ccc(F)cc3)C2)CC1 (stereo in doubt; 28) |
| > 7.5 | CS(=O)(=O)C1CCC(C(=O)N2CC[C@](c3ccc(C(F)(C(F)(F)F)C(F)(F)F)cc3)(S(=O)(=O)c3ccc(F)cc3)C2)CC1 (stereo in doubt; 29) |
| > 7.5 | O=C(O)C1CCC(O)(C(=O)N2CC[C@](c3ccc(C(F)(C(F)(F)F)C(F)(F)F)cc3)(S(=O)(=O)c3ccc(F)cc3)C2)CC1 (stereo in doubt; 13) |

Molecular target: T1, Nuclear receptor subfamily 1 group I member 2
Assay: Transactivation of PXR (unknown origin) expressed in human HepG2 cells
Format: cell-based
Settings: not given

| EC50 [µM] | Structure (SMILES) |
| --- | --- |
| 7.2 | O=C(C1CCS(=O)(=O)C1)N1CC[C@](c2ccc(C(F)(C(F)(F)F)C(F)(F)F)cc2)(S(=O)(=O)c2ccc(F)cc2)C1 (stereo in doubt; 33) |
| 1.8 | CS(=O)(=O)C1CCC(C(=O)N2CC[C@](c3ccc(C(F)(C(F)(F)F)C(F)(F)F)cc3)(S(=O)(=O)c3ccc(F)cc3)C2)CC1 (stereo in doubt; 28) |
| > 50 | CS(=O)(=O)C1CCC(C(=O)N2CC[C@](c3ccc(C(F)(C(F)(F)F)C(F)(F)F)cc3)(S(=O)(=O)c3ccc(F)cc3)C2)CC1 (stereo in doubt; 29) |

Same assay, conditions: hepg2

| EC50 [µM] | Structure (SMILES) |
| --- | --- |
| > 50 | O=C(O)C1CCC(O)(C(=O)N2CC[C@](c3ccc(C(F)(C(F)(F)F)C(F)(F)F)cc3)(S(=O)(=O)c3ccc(F)cc3)C2)CC1 (stereo in doubt; 13) |

Molecular target: T4, Nuclear receptor ROR-alpha (Homo sapiens, UniProt P35398)
T4 sequence (P35398 whole entry): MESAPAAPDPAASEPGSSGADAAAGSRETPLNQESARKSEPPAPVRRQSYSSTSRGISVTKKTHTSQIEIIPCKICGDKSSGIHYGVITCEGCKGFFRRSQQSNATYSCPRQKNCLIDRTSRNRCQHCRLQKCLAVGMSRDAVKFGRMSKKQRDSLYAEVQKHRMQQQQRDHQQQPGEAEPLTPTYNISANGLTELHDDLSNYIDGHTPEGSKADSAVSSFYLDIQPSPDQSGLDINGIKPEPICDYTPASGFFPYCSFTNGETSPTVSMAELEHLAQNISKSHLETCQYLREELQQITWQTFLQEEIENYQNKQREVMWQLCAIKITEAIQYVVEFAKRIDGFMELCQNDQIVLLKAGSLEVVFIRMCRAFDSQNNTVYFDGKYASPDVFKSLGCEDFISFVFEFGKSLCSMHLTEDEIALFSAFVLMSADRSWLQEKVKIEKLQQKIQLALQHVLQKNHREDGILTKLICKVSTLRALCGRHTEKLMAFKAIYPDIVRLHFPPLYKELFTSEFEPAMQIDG
Assay: Inverse agonist activity at human Gal4-fused RORalpha LBD (272 to 556 residues) expressed in human Jurkat cells measured after 18 hrs by steady-glo luciferase reporter gene assay
Format: cell-based
Settings: not given

| EC50 [µM] | Structure (SMILES) |
| --- | --- |
| > 40 | CS(=O)(=O)C1CCC(C(=O)N2CC[C@](c3ccc(C(F)(C(F)(F)F)C(F)(F)F)cc3)(S(=O)(=O)c3ccc(F)cc3)C2)CC1 (stereo in doubt; 28) |

Same assay, conditions: jurkat

| EC50 [µM] | Structure (SMILES) |
| --- | --- |
| > 40 | O=C(C1CCS(=O)(=O)C1)N1CC[C@](c2ccc(C(F)(C(F)(F)F)C(F)(F)F)cc2)(S(=O)(=O)c2ccc(F)cc2)C1 (stereo in doubt; 33) |
| > 40 | CS(=O)(=O)C1CCC(C(=O)N2CC[C@](c3ccc(C(F)(C(F)(F)F)C(F)(F)F)cc3)(S(=O)(=O)c3ccc(F)cc3)C2)CC1 (stereo in doubt; 29) |
| > 40 | O=C(O)C1CCC(O)(C(=O)N2CC[C@](c3ccc(C(F)(C(F)(F)F)C(F)(F)F)cc3)(S(=O)(=O)c3ccc(F)cc3)C2)CC1 (stereo in doubt; 13) |

Tested on: not listed separately
Assay: Stability in mouse liver microsomes assessed as parent compound remaining after 10 mins
Format: ADME, Microsome
Settings: liver microsomes, read-out: Stability

| remaining at 10 min [%] | Structure (SMILES) |
| --- | --- |
| 69 | CS(=O)(=O)C1CCC(C(=O)N2CC[C@](c3ccc(C(F)(C(F)(F)F)C(F)(F)F)cc3)(S(=O)(=O)c3ccc(F)cc3)C2)CC1 (stereo in doubt; 28) |

Same assay, conditions: microsomes, 10 min

| Stability [%] | Structure (SMILES) |
| --- | --- |
| 96 | O=C(C1CCS(=O)(=O)C1)N1CC[C@](c2ccc(C(F)(C(F)(F)F)C(F)(F)F)cc2)(S(=O)(=O)c2ccc(F)cc2)C1 (stereo in doubt; 33) |
| 98 | O=C(O)C1CCC(O)(C(=O)N2CC[C@](c3ccc(C(F)(C(F)(F)F)C(F)(F)F)cc3)(S(=O)(=O)c3ccc(F)cc3)C2)CC1 (stereo in doubt; 13) |

Molecular target: T5, Oxysterols receptor LXR-beta (Homo sapiens, UniProt P55055)
T5 sequence (P55055 whole entry): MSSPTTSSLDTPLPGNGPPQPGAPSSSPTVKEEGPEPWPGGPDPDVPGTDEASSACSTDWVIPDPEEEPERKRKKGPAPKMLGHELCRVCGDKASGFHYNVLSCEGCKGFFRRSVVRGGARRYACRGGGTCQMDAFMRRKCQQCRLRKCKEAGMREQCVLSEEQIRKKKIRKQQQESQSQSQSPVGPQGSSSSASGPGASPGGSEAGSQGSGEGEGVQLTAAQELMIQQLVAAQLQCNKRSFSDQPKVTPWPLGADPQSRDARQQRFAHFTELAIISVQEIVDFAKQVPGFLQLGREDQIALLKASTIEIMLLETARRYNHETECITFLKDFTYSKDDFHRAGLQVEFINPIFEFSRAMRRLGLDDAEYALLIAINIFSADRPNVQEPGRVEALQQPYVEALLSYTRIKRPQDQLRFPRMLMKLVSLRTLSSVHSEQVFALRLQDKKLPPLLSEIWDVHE
Assay: Transactivation of human GAL4-fused LXRbeta expressed in African green monkey CV1 cells
Format: cell-based
Settings: not given

| EC50 [µM] | Structure (SMILES) |
| --- | --- |
| > 7.5 | O=C(C1CCS(=O)(=O)C1)N1CC[C@](c2ccc(C(F)(C(F)(F)F)C(F)(F)F)cc2)(S(=O)(=O)c2ccc(F)cc2)C1 (stereo in doubt; 33) |
| > 7.5 | CS(=O)(=O)C1CCC(C(=O)N2CC[C@](c3ccc(C(F)(C(F)(F)F)C(F)(F)F)cc3)(S(=O)(=O)c3ccc(F)cc3)C2)CC1 (stereo in doubt; 28) |
| > 7.5 | CS(=O)(=O)C1CCC(C(=O)N2CC[C@](c3ccc(C(F)(C(F)(F)F)C(F)(F)F)cc3)(S(=O)(=O)c3ccc(F)cc3)C2)CC1 (stereo in doubt; 29) |
| > 7.5 | O=C(O)C1CCC(O)(C(=O)N2CC[C@](c3ccc(C(F)(C(F)(F)F)C(F)(F)F)cc3)(S(=O)(=O)c3ccc(F)cc3)C2)CC1 (stereo in doubt; 13) |
